Source: PMC6385087, “New Multitarget Hybrids Bearing Tacrine and Phenylbenzothiazole Motifs as Potential Drug Candidates for Alzheimer’s Disease” (Molecules, 2019)

Assays:
[1] = test system: SH-SY5Y cells; experiment: Neuroprotection against ferrous sulfate/L-ascorbic acid toxicity, MTT reduction; type: cell-based, human; settings: Fe/Asc 500 μM/5 mM, 24 h after 1 h pre-treatment, compounds: 16 2.5 µM, 17 0.5 µM, 14 and 15 0.2 µM, 19 and 18 1 µM
Experimental: The neuroprotective effect of TAC-PhBTA conjugates was evaluated using SH-SY5Y cells treated with Aβ1–42 peptides or ascorbate/iron. For each compound, a dose-response curve was performed to select a non-toxic concentration in order to analyze its neuroprotective effect (Figure 3).
SH-SY5Y human neuroblastoma cell line (ATCC-CRL-2266) grown in Dulbecco’s modified Eagle’s medium (DMEM) obtained from Gibco-Invitrogen (Life Technologies Ltd., Liverpool, UK) with 10% heat inactivated fetal calf serum, containing 50 U/mL penicillin, and 50 μg/mL streptomycin, under a humidified atmosphere of 95% air-5% CO2 at 37 °C. Cells were plated at 0.12 × 10^6 cells/mL for cell viability assay. The tested compounds (16, 17, 14, 15, 19 and 18) were dissolved in DMSO at a concentration of 25 mM and aliquots were stored at −20 °C. We performed a dose-response screening (from 0.2 μM to 5 μM) in order to choose the highest non-toxic concentration. […]
Cell viability was determined by a MTT (3-(4,5-dimethylthiazol-2-yl)-2,5-diphenyltetrazolium bromide) reduction test. […] The absorbance was measured at 570 nm. Cell reduction ability was expressed as a percentage of untreated control cells.
All data were expressed as mean ± S.E.M. of at least three independent experiments performed in duplicates. […]

[2] = Solubility in methanol; type: physicochemical

With `COc1cc(-c2nc3ccccc3s2)ccc1OCC(=O)NCCCNc1c2c(nc3ccccc13)CCCC2` [compound 16, 2-(4-(Benzo[d]thiazol-2-yl)-2-methoxyphenoxy)-N-(3-((1,2,3,4-tetrahydroacridin-9-yl)amino)propyl)acetamide] the “Neuroprotective effect against Asc/Fe toxicity (cell viability, MTT)” value [1] was “statistical significant neuroprotective effect” and the Solubility in methanol [2] was “soluble in methanol”.
